Where two headings read alike, the source gives them in different places.
How the values were obtained:
hCES1c [1] = target: T1, hCES1c (Homo sapiens, UniProt P23141); assay: Enzyme kinetic studies of ester hydrolysis with hCES1c; conditions: for Vmax (relative), ester hydrolysis by hCES1c: peak area ratio metabolite/internal standard
T1 sequence (P23141 18-566 isoform P23141-3 limits assumed): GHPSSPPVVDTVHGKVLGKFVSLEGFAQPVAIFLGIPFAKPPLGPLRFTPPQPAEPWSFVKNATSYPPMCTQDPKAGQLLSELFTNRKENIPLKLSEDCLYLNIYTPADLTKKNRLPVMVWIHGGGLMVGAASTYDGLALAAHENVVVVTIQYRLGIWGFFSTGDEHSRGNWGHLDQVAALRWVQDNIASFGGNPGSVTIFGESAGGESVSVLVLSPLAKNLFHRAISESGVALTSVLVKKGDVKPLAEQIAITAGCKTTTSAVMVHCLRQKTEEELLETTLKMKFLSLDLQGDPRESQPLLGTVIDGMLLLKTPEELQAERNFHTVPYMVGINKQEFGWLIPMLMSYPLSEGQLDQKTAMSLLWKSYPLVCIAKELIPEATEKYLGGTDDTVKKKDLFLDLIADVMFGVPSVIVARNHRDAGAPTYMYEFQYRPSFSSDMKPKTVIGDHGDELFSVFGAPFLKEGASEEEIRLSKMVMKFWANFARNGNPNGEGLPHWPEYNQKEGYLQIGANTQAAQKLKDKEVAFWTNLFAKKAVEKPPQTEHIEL

hCES1c [2] = target: T1, hCES1c; set-up: purchased Corning (Amsterdam, The Netherlands); host or cells: baculovirus transfected insect cells; method as in Meyer et al. [2015]; conditions: identical incubation conditions and analyzing methods; ref Meyer et al. [2015]; read-out: Km, hCES1c, literature value; cited from earlier work
hCES1c [3] = target: T1, hCES1c; assay: Initial activity screening with recombinant hCES1c; conditions: 100 µM substrate, 30 min, 37 °C, 0.2 µg/µL protein, LC–ITMS, mean n = 2
hCES2 [4] = target: T2, hCES2 (Homo sapiens, UniProt O00748); assay: Enzyme kinetic studies of ester hydrolysis with hCES2; conditions: for Vmax (relative), ester hydrolysis by hCES2: peak area ratio metabolite/internal standard
T2 sequence (O00748 27-559): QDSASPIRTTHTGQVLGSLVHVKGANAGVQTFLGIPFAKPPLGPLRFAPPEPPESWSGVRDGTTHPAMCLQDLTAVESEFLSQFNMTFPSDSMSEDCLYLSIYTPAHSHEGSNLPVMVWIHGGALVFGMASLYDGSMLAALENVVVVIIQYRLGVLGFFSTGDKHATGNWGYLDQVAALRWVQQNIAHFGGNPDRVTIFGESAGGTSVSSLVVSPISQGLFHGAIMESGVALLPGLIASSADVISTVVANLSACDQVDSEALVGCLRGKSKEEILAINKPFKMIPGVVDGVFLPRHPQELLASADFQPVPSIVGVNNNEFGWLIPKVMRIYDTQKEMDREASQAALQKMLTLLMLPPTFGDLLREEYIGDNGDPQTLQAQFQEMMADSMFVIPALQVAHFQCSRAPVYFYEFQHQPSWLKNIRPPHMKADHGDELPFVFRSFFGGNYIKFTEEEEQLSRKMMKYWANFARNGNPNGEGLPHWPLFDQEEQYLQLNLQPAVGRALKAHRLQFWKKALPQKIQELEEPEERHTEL

hCES2 [5] = target: T2, hCES2; assay: Initial activity screening with recombinant hCES2; conditions: 100 µM substrate, 30 min, 37 °C, 0.2 µg/µL protein, LC–ITMS, mean n = 2
hCES1b [6] = target: T3, hCES1b (Homo sapiens, UniProt P23141); set-up: purchased Corning (Amsterdam, The Netherlands); host or cells: baculovirus transfected insect cells; method as in Meyer et al. [2015]; conditions: identical incubation conditions and analyzing methods; ref Meyer et al. [2015]; read-out: Km, hCES1b, literature value; cited from earlier work
T3 sequence (P23141 18-567): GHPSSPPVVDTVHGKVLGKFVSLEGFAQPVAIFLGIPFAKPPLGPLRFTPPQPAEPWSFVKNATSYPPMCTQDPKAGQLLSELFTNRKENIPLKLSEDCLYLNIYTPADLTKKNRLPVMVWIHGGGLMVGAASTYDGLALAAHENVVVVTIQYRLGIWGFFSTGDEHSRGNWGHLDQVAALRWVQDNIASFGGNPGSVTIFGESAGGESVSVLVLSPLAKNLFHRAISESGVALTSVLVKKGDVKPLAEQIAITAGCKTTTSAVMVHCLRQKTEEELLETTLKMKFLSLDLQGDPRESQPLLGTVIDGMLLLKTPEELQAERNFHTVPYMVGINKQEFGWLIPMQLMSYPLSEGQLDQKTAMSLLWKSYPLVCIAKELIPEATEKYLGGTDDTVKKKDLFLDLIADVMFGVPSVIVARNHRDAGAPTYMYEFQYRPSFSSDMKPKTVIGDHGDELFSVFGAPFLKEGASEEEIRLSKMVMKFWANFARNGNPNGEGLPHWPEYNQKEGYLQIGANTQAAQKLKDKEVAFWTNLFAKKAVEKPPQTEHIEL

[7] = Initial activity screening with pooled human liver S9 fraction; conditions: 100 µM substrate, 30 min, 37 °C, 2 µg/µL protein, LC–ITMS, mean n = 2
[8] = Initial activity screening with pooled human liver microsomes; conditions: 100 µM substrate, 30 min, 37 °C, 2 µg/µL protein, LC–ITMS, mean n = 2
hCES2 [9] = target: T2, hCES2; set-up: purchased Corning (Amsterdam, The Netherlands); host or cells: baculovirus transfected insect cells; method as in Meyer et al. [2015]; conditions: identical incubation conditions and analyzing methods; ref Meyer et al. [2015]; read-out: Km, hCES2, literature value; cited from earlier work
hCES1b [10] = target: T3, hCES1b; assay: Initial activity screening with recombinant hCES1b; conditions: 100 µM substrate, 30 min, 37 °C, 0.2 µg/µL protein, LC–ITMS, mean n = 2
hCES1b [11] = target: T3, hCES1b; assay: Enzyme kinetic studies of ester hydrolysis with hCES1b; conditions: for Vmax (relative), ester hydrolysis by hCES1b: peak area ratio metabolite/internal standard

COc1ccc2c3c1O[C@H]1C(OC(C)=O)=CC[C@H]4[C@@H](C2)N(C)CC[C@]314 [Thebacon, reference compound]
Clint (relative in vitro intrinsic clearance), hCES1c (hCES1c [1]; Clint = Vmax/Km): 0.54 AU/min/mg/µM
Km (hCES1c [1]; read-out: Corrected Km, hCES1c, current Km adjusted by 5.3-fold enzyme load activity factor): 289 µM
Km (hCES1c [1]; read-out: Km, ester hydrolysis by hCES1c, ± S.D., Michaelis–Menten fit, conditions of Table 1): 1530 ± 470 µM
Vmax (relative), ester hydrolysis by hCES1c (hCES1c [1]; ± S.D.): 831 ± 140 AU/min/mg
Vmax (relative), ester hydrolysis by hCES1c (hCES1c [1]; ± S.D., listed as thebacon): 831 AU/min/mg
Km (hCES1c [2]): 264 µM
Relative amount of hydrolysis metabolite formed, hCES1c (hCES1c [3]): 10%
Clint (relative in vitro intrinsic clearance), hCES2 (hCES2 [4]; Clint = Vmax/Km): 0.89 AU/min/mg/µM
Km (hCES2 [4]; read-out: Corrected Km, hCES2, current Km adjusted by 2.2-fold enzyme load activity factor): 247 µM
Km (hCES2 [4]; read-out: Km, ester hydrolysis by hCES2, ± S.D., Michaelis–Menten fit, conditions of Table 1): 543 ± 87 µM
Vmax (relative), ester hydrolysis by hCES2 (hCES2 [4]; ± S.D.): 482 ± 31 AU/min/mg
Vmax (relative), ester hydrolysis by hCES2 (hCES2 [4]; ± S.D., listed as thebacon): 482 AU/min/mg
Relative amount of hydrolysis metabolite formed, hCES2 (hCES2 [5]): 19%
Km (hCES1b [6]): 272 µM
Relative amount of hydrolysis metabolite formed, pHLS9 [7]: about 80%
Relative amount of hydrolysis metabolite formed, pHLM [8]: about 80%
Km (hCES2 [9]): 166 µM
Relative amount of hydrolysis metabolite formed, hCES1b (hCES1b [10]): 47%
Clint (relative in vitro intrinsic clearance), hCES1b (hCES1b [11]; Clint = Vmax/Km): 0.60 AU/min/mg/µM
Km (hCES1b [11]; read-out: Corrected Km, hCES1b, current Km adjusted by 2.4-fold enzyme load activity factor): 273 µM
Km (hCES1b [11]; read-out: Km, ester hydrolysis by hCES1b, ± S.D., Michaelis–Menten fit, conditions of Table 1): 655 ± 210 µM
Vmax (relative), ester hydrolysis by hCES1b (hCES1b [11]; ± S.D.): 394 ± 40 AU/min/mg
Vmax (relative), ester hydrolysis by hCES1b (hCES1b [11]; ± S.D., listed as thebacon): 394 AU/min/mg
